# Results published in patent US20040121994A1, “Novel amides that activate soluble guanylate cyclase” (priority 2002, published 2004).
# Biological target: T1, soluble guanylate cyclase (sGC), α1 and β1 subunits of guanylate cyclase expressed in Sf9 cells (Homo sapiens, UniProt Q02108+Q02153)
# T1 construct: made in house; host or cells: Sf9 insect cells (baculovirus co-infection)
# T1 sequence (Q02108 1-690): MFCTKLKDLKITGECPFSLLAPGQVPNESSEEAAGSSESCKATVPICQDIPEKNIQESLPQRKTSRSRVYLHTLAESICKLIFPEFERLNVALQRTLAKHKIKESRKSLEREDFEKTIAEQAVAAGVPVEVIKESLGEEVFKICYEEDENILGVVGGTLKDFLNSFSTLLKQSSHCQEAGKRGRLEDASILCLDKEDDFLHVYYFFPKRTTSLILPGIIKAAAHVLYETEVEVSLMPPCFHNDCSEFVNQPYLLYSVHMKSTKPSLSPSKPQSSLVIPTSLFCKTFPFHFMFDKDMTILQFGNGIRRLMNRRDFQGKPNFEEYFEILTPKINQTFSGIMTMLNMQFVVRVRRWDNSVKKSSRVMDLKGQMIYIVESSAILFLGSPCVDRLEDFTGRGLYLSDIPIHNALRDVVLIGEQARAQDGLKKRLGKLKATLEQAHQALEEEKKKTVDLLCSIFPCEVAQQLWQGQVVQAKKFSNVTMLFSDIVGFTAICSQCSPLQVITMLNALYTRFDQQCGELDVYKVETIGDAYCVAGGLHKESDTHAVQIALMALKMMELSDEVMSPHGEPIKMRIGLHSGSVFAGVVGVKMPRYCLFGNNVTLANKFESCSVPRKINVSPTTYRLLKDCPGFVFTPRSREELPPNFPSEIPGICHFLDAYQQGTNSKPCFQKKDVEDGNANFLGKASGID
# T1 sequence (Q02153 1-619): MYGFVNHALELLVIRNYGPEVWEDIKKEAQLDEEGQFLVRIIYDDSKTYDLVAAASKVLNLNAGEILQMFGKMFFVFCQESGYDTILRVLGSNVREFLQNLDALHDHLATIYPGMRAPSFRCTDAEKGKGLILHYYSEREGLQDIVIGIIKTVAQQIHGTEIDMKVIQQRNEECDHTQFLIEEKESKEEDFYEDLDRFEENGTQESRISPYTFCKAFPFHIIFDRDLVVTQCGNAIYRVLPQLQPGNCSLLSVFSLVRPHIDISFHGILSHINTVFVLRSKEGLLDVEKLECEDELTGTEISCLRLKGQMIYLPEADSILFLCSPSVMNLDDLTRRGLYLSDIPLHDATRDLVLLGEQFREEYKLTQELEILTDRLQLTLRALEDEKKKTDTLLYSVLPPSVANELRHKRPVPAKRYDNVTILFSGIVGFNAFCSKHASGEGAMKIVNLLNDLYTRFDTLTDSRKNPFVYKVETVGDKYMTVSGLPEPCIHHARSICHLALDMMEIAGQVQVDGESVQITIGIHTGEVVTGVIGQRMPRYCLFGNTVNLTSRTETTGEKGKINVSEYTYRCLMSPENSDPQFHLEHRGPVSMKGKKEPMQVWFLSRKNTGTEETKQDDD
# Experiment: Guanylate cyclase assay (formation of cyclic GMP from GTP)
# Format: biochemical
# Details: for Mean activation at 100 μM: (activity of compound at 100 μM with 1 μM SNP)−(activity of compound at 100 μM)/(activity of SNP at 1 μM)−(basal activity of sGC); for Mean efficacy of compound combined with 1 μM of SNP, [%]: compound at 100 μM with 1 μM sodium nitro prusside (SNP); for Mean efficacy of compound combined with 1 μM of SNP, [%] / Emax at 100 µM: normalized with the activity of 100 μM YC-1 (without SNP) as 100%; for Emax at 100 µM: compound at 100 μM without SNP, read-out: Mean basal efficacy of compound alone at 100 μM, [%]
# Protocol: Sf9 cells were cultured in Sf-90011 medium supplemented with 10% (v/v) fetal calf serum at 28° C. to give a count of 6×10^5 cells/ml. The cells were then infected with a mixture of the virus stocks for the α1 and β1 subunits of guanylate cyclase at a multiplicity of infection of 0.1 pfu/cell. The cells were harvested 72 hours after infection and were pelleted by centrifugation. The resulting cell pellets were homogenized with Polytron homogenizer in 3 volumes of 20 mM Tris-HCl (pH 7.6) containing 1 mM EDTA, 5 mM dithiothreitol, 90 mM NaCl, 10% glycerol, and protease inhibitors mix (Roche Molecular Biochemicals). The homogenate was centrifuged at 50,000×g for 60 minutes and the supernatant was aliquotted and stored at −80° C.
# Compounds of the present invention were dissolved in DMSO to make 100 mM and saved as stocks at −20° C. When compounds were tested, prepared 10-fold concentrated solutions with 10% DMSO. Then added 10 μl of 10-fold concentrated compound solutions to the reaction mixture of total 100 μl.
# Guanylate cyclase activity was measured by the formation of cyclic GMP from GTP in a total volume of 100 μl. Guanylate cyclase-expressed Sf9 cell high-speed supernatant was used as an enzyme source for the assay. The reaction mixture containing 0.1 μl enzyme (Sf9 high-speed sup), compound solution, 50 mM Tris-HCl (pH 7.6), 4 mM MgCl2, 0.5 mM IBMX, 15 mM creatine phosphate, 20 μg creatine phosphokinase, 0.1% BSA and 1 mM GTP was incubated at 37° C. for 15 minutes. After the reaction, 0.9 ml of 50 mM sodium acetate buffer (pH 5.8) was added followed by boiling for 3 minutes to stop the reaction. The solution was centrifuged at 3000 rpm for 15 minutes at room temperature and cyclic GMP in 20 μl of the resulting supernatant was measured according to the protocol of Amersham cyclic GMP enzymeimmunoassay system (purchased from Sigma, catalogue number RPN 226).
# Compounds of the present invention were tested at 100 μM with and without 1 μM sodium nitro prusside (SNP). 1-Benzyl-3-hydroxymethyl-2-furylindazole (YC-1) was included as a standard for each assay. The data was normalized with the activity of 100 μM YC-1 (without SNP) as 100%. Mean basal efficacy, in Table 1, was expressed as a percentage of 100 μM YC-1 (without SNP).
# The mean activation, in Table 1, was calculated based on the formula: (activity of compound of the present invention at 100 μM with 1 μM SNP)−(activity of compound of the present invention at 100 μM)/(activity of SNP at 1 μM)−(basal activity of sGC).
Mean activation at 100 μM,"Mean efficacy of compound combined with 1 μM of SNP, [%]",Emax at 100 µM [%],SMILES
4.8,58,14,"Cc1ccc(Sc2ccccc2/C=C/C(=O)NC2CCC(O)CC2)cc1 (stereo not drawn) [Example 42, (2E)-N-(4-hydroxycyclohexyl)-3-{2-[(4-methylphenyl)thio]phenyl}acrylamide]"
3.5,89,36,"COc1ccc(Sc2ccc(C)cc2)c(/C=C/C(=O)NC2CCC(O)CC2)c1 (stereo not drawn) [Example 44, (2E)-N-(4-hydroxycyclohexyl)-3-{5-methoxy-2-[(4-methylphenyl)thio]phenyl}acrylamide]"
4.3,121,54,"O=C(/C=C/c1ccccc1Sc1ccccc1)NC1CCCCC1O (stereo not drawn) [Example 46, (2E)-N-(2-hydroxycyclohexyl)-3-[2-(phenylthio)phenyl]acrylamide]"
2.8,44,16,"Cc1ccc(Sc2ccccc2/C=C/C(=O)NC2CCCCC2O)cc1 (stereo not drawn) [Example 47, (2E)-N-(2-hydroxycyclohexyl)-3-{2-[(4-methylphenyl)thio]phenyl}acrylamide]"
4.6,102,20,"COc1cccc(Sc2ccccc2/C=C/C(=O)NC2CCCCC2O)c1 (stereo not drawn) [Example 48, (2E)-N-(2-hydroxycyclohexyl)-3-{2-[(3-methoxyphenyl)thio]phenyl}acrylamide]"
3.7,79,15,"COc1ccc(Sc2ccccc2/C=C/C(=O)NC2CCCCC2O)cc1 (stereo not drawn) [Example 49, (2E)-N-(2-hydroxycyclohexyl)-3-{2-[(4-methoxyphenyl)thio]phenyl}acrylamide]"
6.4,175,68,"COc1cccc(Sc2ccccc2/C=C/C(=O)NC2CCC(O)CC2)c1 (stereo not drawn) [Example 50, (2E)-N-(4-hydroxycyclohexyl)-3-{2-[(3-methoxyphenyl)thio]phenyl}acrylamide]"
7.2,258,119,"COc1ccc(Sc2ccccc2/C=C/C(=O)NC2CCC(O)CC2)cc1 (stereo not drawn) [Example 51, (2E)-N-(4-hydroxycyclohexyl)-3-{2-[(4-methoxyphenyl)thio]phenyl}acrylamide]"
2.7,50,11,"Cc1cccc(Sc2ccccc2/C=C/C(=O)NC2CCC(O)CC2)c1 (stereo not drawn) [Example 52, (2E)-N-(4-hydroxycyclohexyl)-3-{2-[(3-methylphenyl)thio]phenyl}acrylamide]"
1.7,10,4,"Cc1ccc(Sc2ccccc2/C=C/C(=O)NC(C)CCCC(C)(C)O)c(C)c1 (stereo not drawn) [Example 53, (2E)-3-{2-[(2,4-dimethylphenyl)thio]phenyl}-N-(5-hydroxy-1,5-dimethylhexyl)acrylamide]"
13.0,186,85,"O=C(/C=C/c1cc(F)ccc1Sc1ccc(Cl)cc1)NCCCCO [Example 54, (2E)-3-{2-[(4-chlorophenyl)thio]-5-fluorophenyl}-N-(4-hydroxybutyl)acrylamide]"
5.3,213,143,"CC(C)CCSc1ccccc1/C=C/C(=O)NC1CCC(O)CC1 (stereo not drawn) [Example 55, (2E)-N-(4-hydroxycyclohexyl)-3-{2-[(3-methylbutyl)thio]phenyl}acrylamide]"
8.3,276,169,"CC(C)CCSc1ccccc1/C=C/C(=O)NC1CCCCC1O (stereo not drawn) [Example 56, (2E)-N-(2-hydroxycyclohexyl)-3-{2-[(3-methylbutyl)thio]phenyl}acrylamide]"
8.4,303,200,"CC(C)CCSc1ccccc1/C=C/C(=O)NCCCO [Example 57, (2E)-N-(3-hydroxypropyl)-3-{2-[(3-methylbutyl)thio]phenyl}acrylamide]"
7.8,307,215,"CC(C)CCSc1ccccc1/C=C/C(=O)NCCCCO [Example 58, (2E)-N-(4-hydroxybutyl)-3-{2-[(3-methylbutyl)thio]phenyl}acrylamide]"
8.4,221,162,"CC(C)CCSc1ccccc1/C=C/C(=O)NCCCCCO [Example 59, (2E)-N-(5-hydroxypentyl)-3-{2-[(3-methylbutyl)thio]phenyl}acrylamide]"
8.3,165,115,"CC(C)CCSc1ccccc1/C=C/C(=O)N1CCC(O)CC1 [Example 60, 1-((2E)-3-{2-[(3-methylbutyl)thio]phenyl}-2-propenoyl)-4-piperidinol]"
10.2,165,103,"CC(C)CCSc1ccccc1/C=C/C(=O)N1CCCC(O)C1 (stereo not drawn) [Example 61, 1-((2E)-3-{2-[(3-methylbutyl)thio]phenyl}-2-propenoyl)-3-piperidinol]"
6.8,164,125,"CC(C)CCSc1ccccc1/C=C/C(=O)N1CCC(C(N)=O)CC1 [Example 63, 1-((2E)-3-{2-[(3-methylbutyl)thio]phenyl}-2-propenoyl)-4-piperidinecarboxamide]"
